# Data reported in patent US7371766B2, “Curcumin analogs with anti-tumor and anti-angiogenic properties” (Emory University, priority 1999, dated 2008).
# Marks after values point to notes of the source that are not given here.
# Assays:
# NCI-H522 = experiment: cells; conditions: Homo sapiens, NCI-H522, 48 h; for GI50: read-out: Median Growth Inhibitory Concentration (GI50); for CC50: read-out: Median Lethal Concentration (LC50)
# MCF-7 = experiment: cells; conditions: Homo sapiens, MCF7, 48 h; for GI50: read-out: Median Growth Inhibitory Concentration (GI50); for CC50: read-out: Median Lethal Concentration (LC50)
# RXF 393 = experiment: cells; conditions: Homo sapiens, RXF 393, 48 h; for GI50: read-out: Median Growth Inhibitory Concentration (GI50); for CC50: read-out: Median Lethal Concentration (LC50)
# HS 578T = experiment: cells; conditions: Homo sapiens, 48 h; for GI50: read-out: Median Growth Inhibitory Concentration (GI50); for CC50: read-out: Median Lethal Concentration (LC50)
# HCT-116 = experiment: cells; conditions: Homo sapiens, HCT-116, 48 h; for GI50: read-out: Median Growth Inhibitory Concentration (GI50); for CC50: read-out: Median Lethal Concentration (LC50)
# OVCAR-5 = experiment: cells; conditions: Homo sapiens, OVCAR-5, 48 h; for GI50: read-out: Median Growth Inhibitory Concentration (GI50); for CC50: read-out: Median Lethal Concentration (LC50)
# MALME-3M = experiment: cells; conditions: Homo sapiens, 48 h; for GI50: read-out: Median Growth Inhibitory Concentration (GI50); for CC50: read-out: Median Lethal Concentration (LC50)
# U251 = experiment: cells; conditions: Homo sapiens, U-251, 48 h; for GI50: read-out: Median Growth Inhibitory Concentration (GI50); for CC50: read-out: Median Lethal Concentration (LC50)
# EKVX = experiment: cells; conditions: Homo sapiens, 48 h; for GI50: read-out: Median Growth Inhibitory Concentration (GI50); for CC50: read-out: Median Lethal Concentration (LC50)
# HL-60 (TB) = experiment: cells; conditions: Homo sapiens, HL-60, 48 h; for GI50: read-out: Median Growth Inhibitory Concentration (GI50); for CC50: read-out: Median Lethal Concentration (LC50)
# SR = experiment: cells; conditions: Homo sapiens, 48 h; for GI50: read-out: Median Growth Inhibitory Concentration (GI50); for CC50: read-out: Median Lethal Concentration (LC50)
# SW-620 = experiment: cells; conditions: Homo sapiens, SW-620, 48 h; for GI50: read-out: Median Growth Inhibitory Concentration (GI50); for CC50: read-out: Median Lethal Concentration (LC50)
# SK-MEL-2 = experiment: cells; conditions: Homo sapiens, SK-MEL-2, 48 h; for GI50: read-out: Median Growth Inhibitory Concentration (GI50); for CC50: read-out: Median Lethal Concentration (LC50)
# K-562 = experiment: cells; conditions: Homo sapiens, K562, 48 h; for GI50: read-out: Median Growth Inhibitory Concentration (GI50); for CC50: read-out: Median Lethal Concentration (LC50)
# HCC-2998 = experiment: cells; conditions: Homo sapiens, HCC 2998, 48 h; for GI50: read-out: Median Growth Inhibitory Concentration (GI50); for CC50: read-out: Median Lethal Concentration (LC50)
# HCT-15 = experiment: cells; conditions: Homo sapiens, HCT-15, 48 h; for GI50: read-out: Median Growth Inhibitory Concentration (GI50); for CC50: read-out: Median Lethal Concentration (LC50)
# NCI-H460 = experiment: cells; conditions: Homo sapiens, NCI-H460, 48 h; for GI50: read-out: Median Growth Inhibitory Concentration (GI50); for CC50: read-out: Median Lethal Concentration (LC50)
# NCI-H226 = experiment: cells; conditions: Homo sapiens, NCI-H226, 48 h; for GI50: read-out: Median Growth Inhibitory Concentration (GI50); for CC50: read-out: Median Lethal Concentration (LC50)
# HT29 = experiment: cells; conditions: Homo sapiens, HT-29, 48 h; for GI50: read-out: Median Growth Inhibitory Concentration (GI50); for CC50: read-out: Median Lethal Concentration (LC50)
# A549 = experiment: cells; conditions: Homo sapiens, A549, 48 h; for GI50: read-out: Median Growth Inhibitory Concentration (GI50); for CC50: read-out: Median Lethal Concentration (LC50)
# CAKI-1 = experiment: cells; conditions: Homo sapiens, CAKI-1, 48 h; for GI50: read-out: Median Growth Inhibitory Concentration (GI50); for CC50: read-out: Median Lethal Concentration (LC50)
# ACHN = experiment: cells; conditions: Homo sapiens, 48 h; for GI50: read-out: Median Growth Inhibitory Concentration (GI50); for CC50: read-out: Median Lethal Concentration (LC50)
# LOX IMVI = experiment: cells; conditions: Homo sapiens, 48 h; for GI50: read-out: Median Growth Inhibitory Concentration (GI50)
# UACC-62 = experiment: cells; conditions: Homo sapiens, UACC-62, 48 h; for GI50: read-out: Median Growth Inhibitory Concentration (GI50); for CC50: read-out: Median Lethal Concentration (LC50)
# UACC-257 = experiment: cells; conditions: Homo sapiens, UACC-257, 48 h; for GI50: read-out: Median Growth Inhibitory Concentration (GI50); for CC50: read-out: Median Lethal Concentration (LC50)
# [1] = tested on: Sixty human tumor cell lines; experiment: cells; conditions: 48 h; for GI50: read-out: Median Growth Inhibitory Concentration (GI50), Mean; for CC50: read-out: Median Lethal Concentration (LC50), Mean
# SN12C = experiment: cells; conditions: Homo sapiens, 48 h; for GI50: read-out: Median Growth Inhibitory Concentration (GI50); for CC50: read-out: Median Lethal Concentration (LC50)
# NCI/ADR-RES = experiment: cells; conditions: Homo sapiens, 48 h; for GI50: read-out: Median Growth Inhibitory Concentration (GI50); for CC50: read-out: Median Lethal Concentration (LC50)
# RPMI-7951 human melanoma = experiment: Neutral Red Assay, cell viability, RPMI-7951; conditions: RPMI-7951; for Neutral Red Uptake, %: 72 hours; for Cell Viability: DMSO = 100
# Procedure: RPMI-795 1, MDA-MB-231 and MDA-MB-435 cell lines were cultured in MEM-alpha medium (GIBCO-BRL, Long Island, N.Y.) containing 10% fetal bovine serum (RPMI-7951, MDA-MB-231) or 5% FBS (MDA-MB-435) at 37° C. and under 5% CO2/95% air. […] The cells were cultured in 48 well plates in all of the experiments described.
# Neutral Red Assay was utilized to determine the effect of the compounds of the present invention on cell viability. Neutral Red was purchased from GIBCO-BRL (Long Island, N.Y.). Cells were plated at a concentration of 20,000 cells/well and cultured overnight. Compounds or vehicle (DMSO 0.1%) were then added and the plates were incubated for 72 hours. Supernatant from each well was either aspirated or collected and media containing Neutral Red (GIBCO-BRL, Long Island, N.Y.) at a concentration of 15 μl/ml was then added to each well. The plates were then incubated at 37° C. for 30 minutes. Next, the cells were washed with twice with PBS and alcoholic-HCl (0.5N—HCl/35% ethanol) was added to each well. The plates were then placed on a plate shaker until all residues were solubilized (pink color). The solubilized mixtures were then transferred to a 96 well plate and the absorbances were read on a micro-test plate reader at a wavelength of 570 nm.
# Cell viability was determined by Neutral Red Assay.
# [2] = tested on: Vascular Endothelial Growth Factor (VEGF) production by human melanoma cell line RPMI-7951; experiment: VEGF ELISA, RPMI-7951; conditions: RPMI-7951; for VEGF ELISA: DMSO control 3713
# [3] = 5 μM, DMSO control 4197 (EF-25: 1045)
compound,measurement,setting,value
"OC(CCc1ccc(F)cc1F)CCc1ccc(F)cc1F [EF19, 1,5-Bis(2,4-difluorophenyl)-pentan-3-ol]",GI50,NCI-H522,18.2 µM
same,CC50,NCI-H522,75.4 µM
same,GI50,MCF-7,17.7 µM
same,CC50,MCF-7,57.1 µM
same,GI50,RXF 393,18.8 µM
same,CC50,RXF 393,58.4 µM
same,GI50,HS 578T,21.9 µM
same,CC50,HS 578T,> 100 µM
same,GI50,HCT-116,17.8 µM
same,CC50,HCT-116,56.3 µM
same,GI50,OVCAR-5,18.5 µM
same,CC50,OVCAR-5,61.1 µM
same,GI50,MALME-3M,18 µM
same,CC50,MALME-3M,59.6 µM
same,GI50,U251,17.4 µM
same,CC50,U251,55.8 µM
same,GI50,EKVX,17.5 µM
same,CC50,EKVX,57.7 µM
same,GI50,HL-60 (TB),18.1 µM
same,CC50,HL-60 (TB),66.8 µM
same,GI50,SR,22.7 µM
same,CC50,SR,82.6 µM
same,GI50,SW-620,17.7 µM
same,CC50,SW-620,63.7 µM
same,GI50,SK-MEL-2,18.4 µM
same,CC50,SK-MEL-2,57 µM
same,GI50,K-562,19 µM
same,CC50,K-562,90.1 µM
same,GI50,HCC-2998,17.7 µM
same,CC50,HCC-2998,56.1 µM
same,GI50,HCT-15,24.8 µM
same,CC50,HCT-15,> 100 µM
same,GI50,NCI-H460,17.9 µM
same,CC50,NCI-H460,57.5 µM
same,GI50,NCI-H226,19.9 µM
same,CC50,NCI-H226,75.7 µM
same,GI50,HT29,17.9 µM
same,CC50,HT29,62.6 µM
same,GI50,A549,18 µM
same,CC50,A549,65.8 µM
same,GI50,CAKI-1,21.8 µM
same,CC50,CAKI-1,67.8 µM
same,GI50,ACHN,17.8 µM
same,CC50,ACHN,56.3 µM
same,GI50,LOX IMVI,20 µM
same,CC50,LOX IMVI; read-out: Median Lethal Concentration (LC50),74.4 µM
same,GI50,UACC-62,15.1 µM
same,CC50,UACC-62,53.2 µM
same,GI50,UACC-257,17.9 µM
same,CC50,UACC-257,56.3 µM
same,GI50,[1],17.8 µM
same,CC50,[1],64.6 µM
same,GI50,SN12C,17.4 µM
same,CC50,SN12C,55.9 µM
same,GI50,NCI/ADR-RES,25.3 µM
same,CC50,NCI/ADR-RES,> 100 µM
"N.N.[Cl][Pt][Cl] [Cisplatin, reference compound]","Neutral Red Uptake, %",RPMI-7951 human melanoma; 5 μM,100 % of control
same,"Neutral Red Uptake, %",RPMI-7951 human melanoma; 20 μM,100 % of control
"CC(=O)O.O=C1C(=Cc2ccccc2F)CNCC1=Cc1ccccc1F [EF24, 3,5-Bis-(2-fluorobenzylidene)-piperidin-4-one-acetate]",GI50,NCI-H522,0.9 µM
same,CC50,NCI-H522,22.9 µM
same,GI50,MCF-7,0.2 µM
same,CC50,MCF-7,5 µM
same,GI50,RXF 393,0.6 µM
same,CC50,RXF 393,3.6 µM
same,GI50,HS 578T,1 µM
same,CC50,HS 578T,81.4 µM
same,GI50,HCT-116,0.2 µM
same,CC50,HCT-116,1.8 µM
same,GI50,OVCAR-5,1.3 µM
same,CC50,OVCAR-5,9.2 µM
same,GI50,MALME-3M,2.3 µM
same,CC50,MALME-3M,25.2 µM
same,GI50,U251,0.2 µM
same,CC50,U251,0.8 µM
same,GI50,EKVX,0.9 µM
same,CC50,EKVX,9.4 µM
same,GI50,HL-60 (TB),0.4 µM
same,CC50,HL-60 (TB),> 100 µM
same,GI50,SR,0.1 µM
same,CC50,SR,68.2 µM
same,GI50,SW-620,0.2 µM
same,CC50,SW-620,4.4 µM
same,GI50,SK-MEL-2,2.6 µM
same,CC50,SK-MEL-2,19.5 µM
same,GI50,K-562,0.3 µM
same,CC50,K-562,75.4 µM
same,GI50,HCC-2998,1.1 µM
same,CC50,HCC-2998,5 µM
same,GI50,HCT-15,0.2 µM
same,CC50,HCT-15,13.6 µM
same,GI50,NCI-H460,81 µM
same,CC50,NCI-H460,50.1 µM
same,GI50,NCI-H226,3.6 µM
same,CC50,NCI-H226,48.3 µM
same,GI50,HT29,0.3 µM
same,CC50,HT29,57.3 µM
same,GI50,A549,1.9 µM
same,CC50,A549,89.4 µM
same,GI50,CAKI-1,0.8 µM
same,CC50,CAKI-1,27.2 µM
same,GI50,ACHN,1.1 µM
same,CC50,ACHN,5.6 µM
same,GI50,LOX IMVI,0.2 µM
same,GI50,UACC-62,1.6 µM
same,CC50,UACC-62,4.5 µM
same,GI50,UACC-257,1.8 µM
same,CC50,UACC-257,13.5 µM
same,GI50,[1],0.7 µM
same,CC50,[1],13.2 µM
same,GI50,SN12C,1 µM
same,CC50,SN12C,5.4 µM
same,GI50,NCI/ADR-RES,0.9 µM
same,CC50,NCI/ADR-RES,60.6 µM
"O=C1C(=Cc2ccccc2O)COCC1=Cc1ccccc1O [EF25, 3,5-Bis(2-hyrdoxybenzylidene)tetrahydro4-H-pyran4-one]",VEGF,"[2]; 5 μM, DMSO = 100",21%
same,VEGF,[2]; [3],216* pg/ml
same,Cell Viability,RPMI-7951 human melanoma; 5 μM,12%
C(=C\c1ccccc1)/S/C=C/c1ccccc1 [EF15],VEGF,"[2]; 5 μM, DMSO = 100",28%
same,VEGF ELISA,[2]; 5 μM,2361 pg/ml/well
same,VEGF,[2]; [3],1187 pg/mL
same,VEGF,"[2]; 20 μM, DMSO = 100",22%
same,VEGF ELISA,[2]; 20 μM,894 pg/ml/well
same,VEGF,"[2]; 20 μM, DMSO control 4197",938 pg/mL
same,"Neutral Red Uptake, %",RPMI-7951 human melanoma; 5 μM,100 % of control
same,Cell Viability,RPMI-7951 human melanoma; 5 μM,112%
same,"Neutral Red Uptake, %",RPMI-7951 human melanoma; 20 μM,100 % of control
same,Cell Viability,RPMI-7951 human melanoma; 20 μM,111%
"3,5-Bis(2-hydroxybenzylidene)-sulfone [EF11]",VEGF,"[2]; 20 μM, DMSO = 100",51%
same,Cell Viability,RPMI-7951 human melanoma; 20 μM,93%
